Peptide text beside a SMILES is read from it. * marks the point of attachment. X1 = Cc1cc(O)cc(C)c1C[C@H](C)C(=O)*
Columns and labels:
[1] = species: Cavia porcellus; assay: In vitro inhibition of electrically evoked contractions of guinea pig ileum(GPI); assay type: functional
[2] = molecular target: Kappa-type opioid receptor (Homo sapiens, UniProt P41145); assay: Tested for binding affinity towards Opioid receptor kappa 1
[3] = species: Mus musculus; assay: In vitro inhibition of electrically evoked contractions of mouse vas deferens(MVD); assay type: functional, organism-based
[4] = species: Cavia porcellus; assay: Tested for antagonistic activity against Mu agonist TAPP in the GPI assay; assay type: functional
[5] = species: Mus musculus; assay: Tested for antagonistic activity against Delta agonist DPDPE in the MVD assay; assay type: functional

Chain of Kappa-type opioid receptor (P41145 whole entry): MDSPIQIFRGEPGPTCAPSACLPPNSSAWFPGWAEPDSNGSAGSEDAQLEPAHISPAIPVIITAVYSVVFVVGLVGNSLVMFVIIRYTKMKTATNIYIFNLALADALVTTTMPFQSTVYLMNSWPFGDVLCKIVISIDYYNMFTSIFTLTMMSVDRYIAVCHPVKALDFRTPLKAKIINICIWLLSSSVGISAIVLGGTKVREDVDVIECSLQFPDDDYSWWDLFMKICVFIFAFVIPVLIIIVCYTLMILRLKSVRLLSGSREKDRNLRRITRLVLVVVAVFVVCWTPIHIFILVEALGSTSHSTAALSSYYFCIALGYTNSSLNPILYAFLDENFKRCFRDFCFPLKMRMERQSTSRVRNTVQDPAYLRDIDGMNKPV

Compound	IC50 [1] [nM]	Ki [2] [nM]	IC50 [3] [nM]	Ke [4] [nM]	Ke [5] [nM]
Cc1cc(O)cc(C)c1C[C@H](N)C(=O)N[C@@H](C)C(=O)NCC(=O)N[C@@H](Cc1ccccc1)C(=O)N[C@@H](CC(C)C)C(N)=O	0.586	> 10000	0.212	–	–
Cc1cc(O)cc(C)c1C[C@H](C)C(=O)N[C@@H](C)C(=O)NCC(=O)N[C@@H](Cc1ccccc1)C(=O)N[C@@H](CC(C)C)C(N)=O (X1-AGFL-NH2)	–	> 10000	–	154	28.1
